From patent US20250382631A1, “PROTAC-CID SYSTEMS FOR USE IN MULTIPLEX GENE REGULATION” (William Marsh Rice University, priority 2022, published 2025) come the findings set out here.

A word on the EC50: it is the concentration that produces a half-maximal response.

The subject of test [1] is pUAS-1-driven EYFP expression in HEK293T cells transfected with GAL4- and VPR-fused PROTAC target protein / E3 ubiquitin ligase. Nature of the test: PROTAC-CID inducible EYFP gene activation, flow cytometry. Type of test: cell-based, human. How it is done:
(§1) Fluorescence assay using flow cytometry analysis. Cells were treated with 0.05% Trpsin EDTA (Thermo Fisher Scientific no. 25300054) or TrypLE (Thermo Fisher Scientific no. 12605028) after transfection and centrifuged at 3000 g for 5 min. Supernatant was removed and the cell pellet was resuspended with 200 μL phosphate buffered saline (PBS) without calcium and magnesium (Thermo Fisher Scientific no. 10010023). Cells were transferred into 12×75 mm flow tubes (Global Scientific no. 110410). Cells were analyzed by MA900 flow cytometry (SONY). 405 nm laser (FL6 filter) was used for testing the BFP channel. 488 nm (FL1 filter) was used for testing the EYFP and GFP channel. Automated alignment using Automatic Setup Beads kit (SONY no. LE-B3001) is performed before running samples. In FIGS. 3A, 3B, and 17, experiments were performed under 2% FSC, 17% BSC, 24% FL1. In FIG. 18, experiments were performed under 2% FSC, 17% BSC, 27% FL1. All the other experiments were performed under 2% FSC, 17% BSC, 24% FL1 and 27% FL6. Flow cytometry data was processed and analyzed by FlowJo 10. Events were first gated with forward scatter-Area (FSC-A) and side scatter-Area (SSC-A) to select viable cells and remove the debris and dead cells. Cells were further gated with FSC-A and FSC-Height (FSC-H) for selecting single cells. The mean intensity of the reporter fluorescent protein (BFP and EYFP) in viable and single cell populations were calculated by FlowJo 10 as the mean of FL6-A and FL1-A. When calculating the fold change of relative fluorescence units (RFU), the relative fluorescence units of EYFP was calculated by dividing the mean of fluorescence intensity of EYFP with the mean of BFP fluorescence intensity for normalization as the following formula: […]
(§2) Next, the mean of the normalized relative fluorescence units of induced group were divided by the value of control group for calculating the fold change as the following formula: […]
(§3) Transfection and microscopy. HEK293T cells (American Type Culture Collection, no. CRL-3216) were cultured with high-glucose Dulbecco's modified Eagle's medium (DMEM) (Thermo Fisher Scientific no. 10569044) with 10% fetal bovine serum (FBS) (Thermo Fisher Scientific no. 10437028) and 1×penicillin-streptomycin (Thermo Fisher Scientific no. 15140122) at 37° C. with 5% CO2. Except for the data in FIGS. 3C, 3E, and 3H, cells were plated into 96 well plate (Corning no. 3598) and transfected by Polyethyleneimine Max (PEI Max) (Polysciences no. 24765-1). 1.5 μL PEI Max (1 mg/mL, pH=7.1) and 100 μl DMEM were mixed with plasmids to be slowly dropped into the cell medium after 30 mins of incubation. Medium was changed 12 hours post-transfection. The inductive small molecules, including Rapamycin (STEM CELL technologies no. 73362), dTAG-13 (TOCRIS no. 6605/5), dTAG^V-1 (TOCRIS no. 6744-5), dBRD9 (TOCRIS no. 6606/5), dTRIM24 (TOCRIS no. 6607/5), MZ1 (TOCRIS no. 6154/5), AT1 (TOCRIS no. 6356/5), TL13-12 (TOCRIS no. 6744/5), TL13-112 (TOCRIS no. 6745/5), dTAG-7 (TOCRIS no. 69125), ZXH3-26 (TOCRIS no. 6713/5) and ABA (GoldBio no. A-050-100), dissolved in Dimethyl sulfoxide (DMSO) (Sigma, no. D8418) were added. For the microscopy observation, the images were taken by Microscopy EVOS (Life Technologies) and processed by ImageJ (Schneider et al., 2012). If not otherwise noted, 60 ng of each plasmid were used for each sample.
(§4) Step-by-step fluorescence protein activation assay protocol. Reagents: • 1. PEI Max (Polysciences no. 24765-1) • 2. DMEM, high glucose, GlutaMAX™ Supplement, pyruvate (Thermo Fisher Scientific no. 10569044) • 3. Penicillin-Streptomycin (10,000 U/mL) (Thermo Fisher Scientific no. 15140122) • 4. Fetal Bovine Serum 500ML (FBS) (Thermo Fisher Scientific no. 10437028) • 5. TrypLE™ Express Enzyme (1×), phenol red (Thermo Fisher Scientific no. 12605068) • 6. PBS pH=7.4 (Thermo Fisher Scientific no. 10010023) • 7. Sony sorting chip […] for MA900 (SONY no. LE-C3210) • 8. Automatic Setup Beads kit (SONY no. LE-B3001) • 9. […]
(In general: A flow cytometer gives signals particle by particle.)

Experiment in test [2]: as above
Type of test: cell-based, human. The note with it: Homo sapiens, HEK-293T, FIG. 13A. How it is done:
as §1, §2, §3, §4

Test [3] relates to isABE system (FRB / FKBP3 fused split ABE8e), EYFP reporter in HEK293T cells. Nature of the test: isABE split adenine base editor, EYFP stop-codon reporter dose response. Type of test: cell-based. The note with it: Homo sapiens, HEK-293T; different doses of Rapamycin, FIG. 5J. The text has this: For rapid exploration of inducible ABE variants, the inventors first sought to develop a rapid fluorescence-based reporter system to quantify the ABE efficiency as reported before. The inventors selected target region in eyfp gene with NGG PAM where a CAG codon within the editing window was mutated to TAG stop codon. ABEs convert A to G or T to C, thus allowing the conversion of stop codon to CAG following gRNA binding to untemplated strand. Additionally, there is no other bystander A in the editing window that would cause complex editing to affect the fluorescence expression. The inventors observed a high restoration of the EYFP fluorescence when transfecting HEK293T cells with plasmids encoding the ABE8e fused SpCas9 and guide RNA (FIGS. 5A and 5B). Next, the target range of base editors was restricted by the PAM where the prototypical SpCas9 recognizing target sites with NGG PAM (where N is A, C, G or T). A variant named SpG was identified with an expanded set of NGN PAM. […]
To develop a split adenosine base editor system, the inventors identified two potential split regions based on the crystal structure of ABE8e base editor in complex with guide RNA and target DNA. […] In addition, moderate levels of eYFP signal were detected in both sites. […]

Setting [4] is: Table 4 nonlinear regression of EYFP activation, FIG. 13A.
[5] abbreviates: Table 4 nonlinear regression, FIG. 13A.

Read-outs that look alike come from different tables or passages of the source.

With `CO[C@H]1C[C@@H]2CC[C@@H](C)[C@@](O)(O2)C(=O)C(=O)N2CCCC[C@H]2C(=O)O[C@H]([C@H](C)C[C@@H]2CC[C@@H](O)[C@H](OC)C2)CC(=O)[C@H](C)/C=C(\C)[C@@H](O)[C@@H](OC)C(=O)[C@H](C)C[C@H](C)/C=C/C=C/C=C/1C` [Rapamycin], in test [1] (setting [4]), the “Bottom (best-fit value)” value was 6.692, the “Span (best-fit value)” value is 483.9 and the “Top (best-fit value)” value is reported as 490.6. In addition, in test [1] (setting [5]), the “Hillslope (best-fit value)” value was 1.871 and the “logEC50 (best-fit value)” value stood at 0.8008. For the same compound, the “rapamycin-based gene activation (EYFP)” value in test [1] (using FRB and FKBP12, FIG. 1B) is on record as 355 fold. Further, in test [2] (Table 4 nonlinear regression, Prism 9 [Agonist] vs. response variable slope (four parameters), no unit in table (the source gives nM), read-out: EC50 (best-fit value)), the concentration for a half-maximal effect (EC50) came to 6.32 nM. In addition, the EC50 in test [2] (dose-response, read-out: EC50 for gene activation) was found to be 6 nM. In test [3], this compound gave an EC50 of 1.8 nM.
